Tests used:
Type in all cases: physicochemical
[1] = 1-MCP release, dry forced-air (duct fan) vs water-based release in sealed apple storage room; details: sealed room 2-6° C.
Method: This example describes a comparison of active ingredient release profiles and rates using a device and system of this disclosure as compared to an existing technique. Specifically, gaseous 1-MCP release via pump-driven gaseous fluid flow was compared to water-based release of 1-MCP.
A pump in the form of a duct fan was placed inside of a 30,624 cubic foot apple storage room kept between 2-6° C. The fan was placed facing up onto two iron bars to allow space for air to enter below the fan. The device was assembled by placing a 12″ mesh sieve on top of the duct fan, to which was added a 1 kg bed of a particulate delivery material in the form of activated carbon powder associated with an activated ingredient in the form of 1-MCP. The sieve and delivery material was then contained by placing a pair of nylon stockings over the opening of the sieve and sealing it all with duct tape. The room was vacated by the user and sealed before the fan was turned on. […] At the same time, a comparative experiment was performed by placing, in an adjacent identical apple storage room, a bucket containing 12 L of distilled water and 4 aerators (each of which produced 0.024 cubic feet per min, 0.096 cubic feet per minute total). […] The 1-MCP levels in the sealed apple storage room for the second, comparative experiment was measured in the same manner as described above.

[2] = 1-MCP buildup and retention in sealed vs unsealed apple storage room, box fan device; details: 2-6° C., after 15 hours of running the fan, 0.5 kg activated carbon bed
Method: This example describes release of an active ingredient into an enclosure using a device and system as described in this disclosure. Specifically, gaseous 1-MCP buildup and retention in an enclosure in the form of a sealed apple room was compared to buildup and retention in an unsealed apple storage room.
A pump in the form of a 20″×20″ box fan was placed inside of a 33,264 cubic foot apple storage room kept at a temperature between 2-6° C., with the fan facing up and elevated several inches from the ground to allow space for air to enter the fan from below. The device was assembled by placing a metal air filter housing and a 20″×20″ air filter (Nordic Pure® Part 20201.8-3) on top of the fan, to which was added a 0.5 kg bed of a particulate delivery material in the form of activated carbon powder associated with an activate ingredient in the form of 1-MCP. Another identical 20″×20″ air filter was placed on top of the 1-MCP-loaded activated carbon and secured with a clamp. The apple storage room was vacated by the user and sealed before the fan was turned on. […] The C2H4 sensor was calibrated for 1-MCP by comparison with gas chromatography readings, and reported values in millivolts which were subtracted from baseline readings for the detector and then converted via the calibration curve to concentration measurements. […]

[3] = 1-MCP release rate as a function of air speed; details: five air speeds and 0 m/s, 0.5 kg activated carbon powder, sealed room of approximately 30,000 cubic feet
Method: This example describes the release rate of an active ingredient from a delivery material as a function of gaseous fluid flow rate through the delivery material. Specifically, the rate of gaseous 1-MCP release via pump-driven air flow was measured as a function of the air flow rate.
In a sealed apple storage room of approximately 30,000 cubic feet, 0.5 kg of a particulate delivery material in the form of activated carbon powder associated with an activated ingredient in the form of 1-MCP was held in front of pumps in the form of fans with known air speeds for greater than 2 hours each. The fan type and geometry was varied to access various air speeds. The concentration of 1-MCP in the atmosphere of the sealed apple storage room was monitored using measurements from a detector making use of the C2H4 sensor described in Example 1, and release rates were calculated at five different air speeds, as well as at a flow rate of 0 m/s.

[4] = 1-MCP release with pump vs without pump in sealed apple storage room; details: box fan on vs off, first 240 minutes, 0.5 kg activated carbon bed, sealed room 2-6° C.
Method: This example describes the effect of directing gaseous fluid flow through a delivery material on the rate of release of active ingredients. Specifically, gaseous 1-MCP release via pump-driven gas flow was compared to release in the absence of pump-driven flow.
A pump in the form of a 20″×20″ box fan was placed inside of a 33,264 cubic foot apple storage room kept at a temperature between 2-6° C., with the fan facing up and elevated several inches from the ground to allow space for air to enter the fan from below. The device was assembled by placing a metal air filter housing and a 20″×20″ air filter (Nordic Pure® Part 20201.8-3) on top of the fan, to which was added a 0.5 kg bed of a particulate delivery material in the form of activated carbon powder associated with an activated ingredient in the form of 1-MCP. Another identical 20″×20″ air filter was placed on top of the 1-MCP-loaded activated carbon and secured with a clamp. The apple storage room was vacated by the user and sealed before the fan was turned on. At the same time, in an adjacent, identical apple storage room, a second, identical device described above was set up with a 0.5 kg bed of activated carbon powder associated with 1-MCP. However, the fan of this second device was not turned on.

With `CC1=CC1` [1-MCP, 1-methylcyclopropene] the “duration of sustained release” value ([1]; dry forced-air release method, duct fan) was greater than 170 min, the “increase in rate of release, dry forced-air release vs water-based release” value ([1]; initial slope of concentration profiles, 1 kg activated carbon bed) was 16 fold and the “measured 1-MCP level in room” value ([2]; sealed apple storage room) was “greater 1-MCP level”. For the same molecule, the “measured 1-MCP level in room” value ([2]; unsealed apple storage room (portal door open)) was “significant level of 1-MCP”, the “1-MCP release rate as a function of air speed” value [3] was “greater rate when faster air speeds were used” and the “1-MCP release with pump compared to no pump” value [4] was “released at a greater rate and in greater amounts”.
